Test results reported in PubChem BioAssay AID977624 (Broad Institute, 2014).
Inconclusive results are not listed. Calls of active or inactive are those of the source.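 The calls were made as follows: active = compound lowering the normal-ribosome reporter at least twice as much as the humanized-ribosome reporter, growth loss under a set limit; inconclusive = no clear call, values can overlap the other calls; inactive = the rest.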

test system: E. coli wild-type GFP strain growth, fluorescence, 24 h; test: growth inhibition of wild-type GFP E. coli, dose response, h34 mutant RFP, cherry-pick (AID 977624); conditions: not given;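 also: wild-type GFP strain co-cultured with humanized h34 ribosome RFP strain in same well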

Compound | AC50
O=C(O)c1cccnc1SCc1ccccc1Cl | > 100 µM (inactive)
O=C1NC(CCc2ccccc2)C(=O)N1Cc1cccc2ccccc12 (stereo not given) | > 100 µM (inactive)
CN1CCN(C(=O)C[C@@H]2CC[C@@H]3[C@H](COC[C@H](O)CN3C(=O)Nc3ccc(Cl)cc3)O2)CC1 | > 100 µM (inactive)
COc1cccc(N2CCN(c3ccc(S(=O)(=O)N4CCN(C)CC4)cc3[N+](=O)[O-])CC2)c1 | > 100 µM (inactive)
Cc1cc(C)cc(NC(=O)c2cccc(NC(=O)c3ccco3)c2)c1 | > 100 µM (inactive)
N#Cc1cccc(-c2ccc3c(c2)[C@H]2[C@H](CCN2C(=O)c2ccccc2F)[C@H](CO)N3)c1 | > 100 µM (inactive)
O=c1[nH]c(C2CCN(S(=O)(=O)c3ccc4c(c3)OCCO4)CC2)nc2c1nnn2Cc1ccccc1F | > 100 µM (inactive)
Cn1nc(C(=O)Nc2cccc(S(=O)(=O)N3CCCCC3)c2)c2ccccc2c1=O | > 100 µM (inactive)
O=C(Nc1cccc(Oc2ccc3c(c2)C(=O)NC3=O)c1)c1cccs1 | > 100 µM (inactive)
COc1ccc(OC2C(=O)N(Cc3ccc4c(c3)OCO4)C2c2cccs2)cc1 (stereo not given) | > 100 µM (inactive)
CN(CCOc1ccccc1)C(=O)c1ccc(OC2CCN(C(=O)C3CC3)CC2)cc1 | > 100 µM (inactive)
COc1ccc(-c2nc(NC(C)=O)sc2-c2ccccc2)cc1 | > 100 µM (inactive)
O=C1c2cccc(OCC(=O)N3CCCc4ccccc43)c2CCN1Cc1cccnc1 | > 100 µM (inactive)
CCOC(=O)c1nc(C)sc1-c1ccnn1S(=O)(=O)c1cccc(Cl)c1 | > 100 µM (inactive)
C=CCn1c(-c2cc3cccc(OC)c3o2)n[nH]c1=S | > 100 µM (inactive)
Cc1cccc(C)c1NC(=O)C1(C)CSCC(=O)N1CCOc1ccccc1 (stereo not given) | > 100 µM (inactive)
NC(=O)c1sc2nnc(-c3ccccc3)c(-c3ccccc3)c2c1N | > 100 µM (inactive)
C[C@H](CO)N1C[C@H](C)[C@H](CN(C)C(=O)CCCN(C)C)OCCCC[C@H](C)Oc2ccc(NC(=O)Nc3cccc4ccccc34)cc2C1=O | > 100 µM (inactive)
O=C(NCc1ccccc1)c1nc(S(=O)(=O)Cc2ccccc2)ncc1Cl | > 100 µM (inactive)
O=C(NCc1ccco1)c1ccc(COc2cccc3ccccc23)cc1 | > 100 µM (inactive)
O=C(c1cc(C(=O)N2CCOCC2)c2nc3ccccc3n2c1)c1cc(Cl)cc(Cl)c1O | > 100 µM (inactive)
CN(c1ccccc1)S(=O)(=O)c1cccc(C(=O)OCC(=O)NCc2ccco2)c1 | > 100 µM (inactive)

Compound | AC50
CCOc1ccc(S(=O)(=O)Nc2ccc(S(=O)(=O)N3CCCC3)cc2)cc1 | > 100 µM (inactive)
N#Cc1nc(Cc2ccccc2)oc1N1CCCC1 | > 100 µM (inactive)
O=C(Nc1ccc(S(=O)(=O)NC2=NCCCCC2)cc1)c1ccc([N+](=O)[O-])s1 | > 100 µM (inactive)
O=C(O)c1ccccc1NC(=O)C(c1ccccc1)c1ccccc1 | > 100 µM (inactive)
CCN(CC)CCN(C(=O)C1CCCCC1)c1nc2cc3c(cc2s1)OCO3 | > 100 µM (inactive)
COc1ccc(-c2nnn(CC(=O)N3CCN(c4ccccc4OC)CC3)n2)cc1OC | > 100 µM (inactive)
O=[N+]([O-])c1cccnc1N1CCN(c2ccc(F)cc2)CC1 | > 100 µM (inactive)
CCc1nnc(NS(=O)(=O)c2ccc(NC(=O)c3cccc4ccccc34)cc2)s1 | > 100 µM (inactive)
O=C(O)c1ccc2c(c1)N(Cc1ccc(F)cc1)C(=O)c1ccccc1S2 | > 100 µM (inactive)
CCN(c1ccccc1)S(=O)(=O)c1ccc(OC)c(OC)c1 | > 100 µM (inactive)
O=C(Nc1cccc(-c2cn3ccccc3n2)c1)c1ccccc1 | > 100 µM (inactive)
CC1CCN(CC(O)COCCC23CC4CC(CC(C4)C2)C3)CC1 (stereo not given) | > 100 µM (inactive)
CC(Nc1ncnc2ccccc12)c1ccccc1 (stereo not given) | > 100 µM (inactive)
O=C(Nc1ccc2nc3n(c(=O)c2c1)CCCCC3)c1c(F)ccc([N+](=O)[O-])c1F | > 100 µM (inactive)
Cc1ccccc1OCC(O)Cn1c(NCc2ccco2)nc2c1c(=O)n(C)c(=O)n2C (stereo not given) | > 100 µM (inactive)
O=C(O)CC1(CC(=O)NCc2ccc(-c3cccs3)cc2)CCCCC1 | > 100 µM (inactive)
CSc1cccc(NC(=O)CSc2nc3ccccc3o2)c1 | > 100 µM (inactive)
COc1ccc(C(=O)Cn2c(C)nc([N+](=O)[O-])c2Br)cc1 | > 100 µM (inactive)
CCOc1ccc(C(C)=O)cc1CN1C(=O)NC2(CCCCCCC2)C1=O | > 100 µM (inactive)
COC(=O)C(Cc1csc2ccc(Cl)cc12)NC(=O)c1ccc(Cl)cc1 (stereo not given) | > 100 µM (inactive)
O=C(CN1CCc2ccccc2C1)Nc1ccc(F)cc1F | > 100 µM (inactive)
Cc1cc(C(=O)COC(=O)c2ccc(Br)o2)c(C)n1C | > 100 µM (inactive)

Compound | AC50
Fc1cccc(Cl)c1CSc1ccc(-c2ccco2)nn1 | > 100 µM (inactive)
CN1CCN(C(=O)C[C@H]2CC[C@@H]3[C@H](COC[C@@H](O)CN3C(=O)Nc3ccc(Cl)cc3)O2)CC1 | > 100 µM (inactive)
O=C(CCc1nc2ccccc2s1)OCC(=O)c1ccc[nH]1 | > 100 µM (inactive)
Cc1csc(SCc2nc3scc(-c4ccccc4)c3c(=O)[nH]2)n1 | > 100 µM (inactive)
CC1(C)CC(=O)c2cnc(N3CCc4ccccc43)nc2C1 | > 100 µM (inactive)
Cc1ccccc1-n1nnnc1SCCCC(=O)c1ccc(F)cc1 | > 100 µM (inactive)
CCOc1ccc2sc(NS(=O)(=O)c3ccc(N)cc3)nc2c1 | > 100 µM (inactive)
COc1cccc2c1Oc1cc([N+](=O)[O-])cc(N(C)C(C)=O)c1C=C2 | > 100 µM (inactive)
COc1ccc2nc(SCC(=O)Nc3ccccc3OC)[nH]c2c1 | > 100 µM (inactive)
COc1ccc(CCNc2nc(-c3ccncc3)cs2)cc1OC | > 100 µM (inactive)
COc1ccc(C(CC(=O)c2ccc(O)cc2)S(=O)(=O)c2ccc(C)cc2)cc1 (stereo not given) | > 100 µM (inactive)
Cc1cc(NC(=O)CS(=O)(=O)c2cn(Cc3cccc(Br)c3)c3ccccc23)no1 | > 100 µM (inactive)
CCc1cc2cc(OC)ccc2nc1SCC(=O)Nc1cc(OC)c(OC)cc1C(=O)O | > 100 µM (inactive)
O=C(CSc1nc(C2CCCCC2)nc2ccccc12)N1CCCC1 | > 100 µM (inactive)
Cc1ccc2oc(C(=O)N(CCO)Cc3ccccc3)c(C)c2c1 | > 100 µM (inactive)
COc1cc2c(cc1OC)C1(C)N(CC2)C(C(C)=O)=NN1c1ccc(Cl)cc1 (stereo not given) | > 100 µM (inactive)
O=C(NCc1nc2ccccc2[nH]1)c1ccc(S(=O)(=O)N2CCCC2)cc1 | > 100 µM (inactive)
COc1ccc2nc(SCC(=O)Nc3ccccc3)[nH]c2c1 | > 100 µM (inactive)
Cc1ccc(-n2nc(C)c3c(C)c(CCC(=O)O)c(C)nc32)cc1C | > 100 µM (inactive)
O=C(CCCn1c(=S)[nH]c2ccsc2c1=O)Nc1ccc2c(c1)OCCO2 | > 100 µM (inactive)
O=S(=O)(c1ccccc1)N1C[C@@H]2[C@H](c3ccccc31)[C@H](CO)N2Cc1ccccc1 | > 100 µM (inactive)
FC(F)(F)c1ccc(Cl)c(-n2c(Cc3cccs3)n[nH]c2=S)c1 | > 100 µM (inactive)

test system: E. coli mixed culture (wild-type GFP + h34 RFP) total growth, OD600, 24 h; test: as above; conditions: E. coli mixed culture (wild-type GFP + h34 RFP), 24 h; measured here: total OD600 growth

Compound | AC50
O=C(O)c1cccnc1SCc1ccccc1Cl | > 100 µM
COc1ccccc1NC(=O)CSc1nccn1Cc1ccc(F)cc1 | > 100 µM
CC(=O)c1cccc(NC(=O)COC(=O)CCC(=O)c2ccc(F)cc2)c1 | > 100 µM
O=C(CC1C(=O)NCCN1CC1CCCCC1)NCc1ccc(F)cc1F (stereo not given) | > 100 µM
Cc1cccc(-c2ccc([C@H]3[C@H](CO)N4CCCCN(S(=O)(=O)c5ccccc5C)C[C@@H]34)cc2)c1 | > 52 µM
O=C1NC(CCc2ccccc2)C(=O)N1Cc1cccc2ccccc12 (stereo not given) | > 100 µM
CC1CCN(c2ccc3nnc(CCC(=O)Nc4cccc(F)c4)n3n2)CC1 | > 100 µM
CN1CCN(C(=O)C[C@@H]2CC[C@@H]3[C@H](COC[C@H](O)CN3C(=O)Nc3ccc(Cl)cc3)O2)CC1 | > 100 µM
O=C(Nc1cc(S(=O)(=O)N2CCOCC2)ccc1N1CCOCC1)c1ccc([N+](=O)[O-])s1 | > 100 µM
COc1cccc(N2CCN(c3ccc(S(=O)(=O)N4CCN(C)CC4)cc3[N+](=O)[O-])CC2)c1 | > 100 µM
Cc1cc(C)cc(NC(=O)c2cccc(NC(=O)c3ccco3)c2)c1 | > 100 µM
N#Cc1cccc(-c2ccc3c(c2)[C@H]2[C@H](CCN2C(=O)c2ccccc2F)[C@H](CO)N3)c1 | > 100 µM
O=c1[nH]c(C2CCN(S(=O)(=O)c3ccc4c(c3)OCCO4)CC2)nc2c1nnn2Cc1ccccc1F | > 100 µM
Cn1nc(C(=O)Nc2cccc(S(=O)(=O)N3CCCCC3)c2)c2ccccc2c1=O | > 100 µM
CO[C@@H]1CN(C)C(=O)c2cc(NC(=O)C3CCCC3)ccc2OC[C@@H](C)N(C(=O)Nc2ccc(C(F)(F)F)cc2)C[C@H]1C | > 100 µM
O=C(Nc1cccc(Oc2ccc3c(c2)C(=O)NC3=O)c1)c1cccs1 | > 100 µM
C=CCN(CC(O)c1cccc([N+](=O)[O-])c1)C(C)CCc1ccccc1 (stereo not given) | > 100 µM
COc1ccc(OC2C(=O)N(Cc3ccc4c(c3)OCO4)C2c2cccs2)cc1 (stereo not given) | > 100 µM
Cc1cccc(OCCC(=O)Nc2ccc(F)c(F)c2)c1 | > 100 µM
CN(CCOc1ccccc1)C(=O)c1ccc(OC2CCN(C(=O)C3CC3)CC2)cc1 | > 100 µM

Compound | AC50
COc1ccc(-c2nc(NC(C)=O)sc2-c2ccccc2)cc1 | > 100 µM
CCCN(Cc1ccco1)S(=O)(=O)c1ccc(OC)c(OC)c1 | > 100 µM
O=C1c2cccc(OCC(=O)N3CCCc4ccccc43)c2CCN1Cc1cccnc1 | > 100 µM
CCSc1nc2ccccc2c(=O)n1CCc1ccc(OC)c(OC)c1 | > 100 µM
CCOC(=O)c1nc(C)sc1-c1ccnn1S(=O)(=O)c1cccc(Cl)c1 | 52.2 µM
CCOC(=O)c1c(C)[nH]c(C)c1S(=O)(=O)NCCN1CCN(c2ccccc2F)CC1 | > 100 µM
CCOc1ccc(CCNC(=O)CCn2ccc3cc(S(=O)(=O)N4CCCC4)ccc32)cc1 | > 100 µM
CC(=O)Nc1cccc(NC(=O)CSc2ccc(-c3cccnc3)nn2)c1 | > 100 µM
C=CCn1c(SCC(=O)Nc2ccc3c(c2)OCCO3)nnc1-c1ccco1 | > 100 µM
O=C1c2ccccc2NC(c2ccc(-c3cccc([N+](=O)[O-])c3)o2)N1O (stereo not given) | > 100 µM
CN(C)Cc1nc2ccccc2c(=O)n1Cc1nc(-c2cccc([N+](=O)[O-])c2)cs1 | > 100 µM
Cc1ccccc1COc1ccc(-c2nn[nH]n2)cc1 | > 100 µM
Cc1nc(SCC(=O)Nc2ccc3c(c2)OCCO3)nc(C)c1C | > 100 µM
O=C(Nc1cccc(Cl)c1)N1C[C@@H]2[C@H](c3ccccc31)[C@H](CO)N2Cc1ccncc1 | > 100 µM
CC(=O)Nc1cccc(-c2ccnc3c2CC(C(=O)Nc2ccc4c(c2)OCO4)O3)c1 (stereo not given) | > 100 µM
CCOC(=O)c1cc(-c2ccc(OC)cc2)n[nH]1 | > 100 µM
Cc1noc(C)c1NC(=O)N(C)C[C@H]1OCCCC[C@@H](C)Oc2ccc(NC(=O)Nc3cccc4ccccc34)cc2C(=O)N([C@@H](C)CO)C[C@H]1C | > 100 µM
CCn1cc(CCC(=O)NCCc2ccccc2)c2ccccc21 | > 100 µM
O=C(c1ccc2c(c1)CCN2S(=O)(=O)c1ccccc1)N1CCN(c2ccccc2)CC1 | > 100 µM
